Measured values reported in ChEMBL document CHEMBL5463725, “Data for DCP probe BAY-277” (2023).
Activity calls are given as the source filed them. No cut-off for these calls is given here.

Tests used:
[1] = target: Adenosine Transporter (Cavia porcellus) (UniProt H0V4R7+H0UUG1+H0V3Z5); experiment: Inhibition of Transporter, Adenosine at 10.0 µM in the Eurofins Panlabs Safety Screen; assay type: protein assay; settings: Compound concentration 10.0 uM
[2] = target: Delta-type opioid receptor (Homo sapiens) (UniProt P41143); settings: Compound concentration 10.0 uM
[3] = target: Vasopressin V1a receptor (Homo sapiens) (UniProt P37288); experiment: Inhibition of Vasopressin V1A at 10.0 µM in the Eurofins Panlabs Safety Screen; settings: Compound concentration 10.0 uM
Histamine H3 receptor = Histamine H3 receptor (Homo sapiens, UniProt Q9Y5N1); experiment: GPCRScan assay: inhibition of H3; set-up: radioligand conc. used [nm] 0.5 – 1.0, parental cells HEK Flp-In
[4] = target: T1, 5-hydroxytryptamine receptor 2C (Homo sapiens) (UniProt P28335); settings: Compound concentration 10.0 uM
T1 sequence (whole entry): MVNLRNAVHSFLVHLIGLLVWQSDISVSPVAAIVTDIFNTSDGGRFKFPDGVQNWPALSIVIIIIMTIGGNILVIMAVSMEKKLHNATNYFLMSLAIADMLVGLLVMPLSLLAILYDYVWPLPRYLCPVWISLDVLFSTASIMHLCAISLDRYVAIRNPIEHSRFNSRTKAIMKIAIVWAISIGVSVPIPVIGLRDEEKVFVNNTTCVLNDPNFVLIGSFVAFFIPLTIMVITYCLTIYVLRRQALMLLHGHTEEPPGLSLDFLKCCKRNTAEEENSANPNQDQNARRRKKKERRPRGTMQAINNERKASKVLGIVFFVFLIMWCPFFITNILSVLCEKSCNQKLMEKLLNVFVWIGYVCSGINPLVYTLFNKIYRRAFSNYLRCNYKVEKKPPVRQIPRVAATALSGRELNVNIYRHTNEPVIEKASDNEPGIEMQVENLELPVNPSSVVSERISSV

[5] = target: Sodium-dependent noradrenaline transporter (Homo sapiens) (UniProt P23975); experiment: Inhibition of Transporter, Norepinephrine (NET) at 10.0 µM in the Eurofins Panlabs Safety Screen; settings: Compound concentration 10.0 uM
[6] = target: Adenosine receptor A3 (Homo sapiens) (UniProt P0DMS8); experiment: Inhibition of Adenosine A3 at 10.0 µM in the Eurofins Panlabs Safety Screen; settings: Compound concentration 10.0 uM
[7] = target: B2 bradykinin receptor (Homo sapiens) (UniProt P30411); experiment: Inhibition of Bradykinin B2 at 10.0 µM in the Eurofins Panlabs Safety Screen; settings: Compound concentration 10.0 uM
[8] = target: T2, Alpha-2B adrenergic receptor (Homo sapiens) (UniProt P18089); experiment: Inhibition of Adrenergic alpha2B at 10.0 µM in the Eurofins Panlabs Safety Screen; settings: Compound concentration 10.0 uM
T2 sequence (whole entry): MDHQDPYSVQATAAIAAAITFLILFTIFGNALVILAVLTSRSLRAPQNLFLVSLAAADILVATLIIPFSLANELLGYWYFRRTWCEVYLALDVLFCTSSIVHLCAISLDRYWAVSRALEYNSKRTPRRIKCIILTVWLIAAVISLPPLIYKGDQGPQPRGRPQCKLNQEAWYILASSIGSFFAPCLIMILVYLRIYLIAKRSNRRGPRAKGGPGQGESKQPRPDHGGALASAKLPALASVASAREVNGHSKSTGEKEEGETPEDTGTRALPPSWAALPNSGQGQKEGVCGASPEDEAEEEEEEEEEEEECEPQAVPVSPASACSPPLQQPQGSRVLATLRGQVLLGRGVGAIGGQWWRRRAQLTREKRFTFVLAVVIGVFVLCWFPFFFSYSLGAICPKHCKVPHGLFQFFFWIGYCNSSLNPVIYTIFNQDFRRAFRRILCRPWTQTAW

D(3) dopamine receptor = D(3) dopamine receptor (Homo sapiens, UniProt P35462); experiment: Inhibition of Dopamine D3 at 10.0 µM in the Eurofins Panlabs Safety Screen; settings: Compound concentration 10.0 uM
[9] = target: Delta-type opioid receptor (Homo sapiens) (UniProt P41143); experiment: Inhibition of Opiate delta1 (OP1, DOP) at 10.0 µM in the Eurofins Panlabs Safety Screen; settings: Compound concentration 10.0 uM
[10] = target: Glucocorticoid receptor (Homo sapiens) (UniProt P04150); experiment: Inhibition of Glucocorticoid at 10.0 µM in the Eurofins Panlabs Safety Screen; settings: Compound concentration 10.0 uM
[11] = target: Beta-3 adrenergic receptor (Homo sapiens) (UniProt P13945); settings: Compound concentration 10.0 uM
[12] = target: Methionine aminopeptidase 2 (Homo sapiens, UniProt P50579); experiment: Degradation in HUVEC cells (WB) (Western Blot (WB)); assay type: functional, cell-based
[13] = target: Alpha-1D adrenergic receptor (Homo sapiens) (UniProt P25100); settings: Compound concentration 10.0 uM
[14] = target: T3, Muscarinic acetylcholine receptor M2 (Homo sapiens) (UniProt P08172); experiment: Inhibition of Muscarinic M2 at 10.0 µM in the Eurofins Panlabs Safety Screen; settings: Compound concentration 10.0 uM
T3 sequence (whole entry): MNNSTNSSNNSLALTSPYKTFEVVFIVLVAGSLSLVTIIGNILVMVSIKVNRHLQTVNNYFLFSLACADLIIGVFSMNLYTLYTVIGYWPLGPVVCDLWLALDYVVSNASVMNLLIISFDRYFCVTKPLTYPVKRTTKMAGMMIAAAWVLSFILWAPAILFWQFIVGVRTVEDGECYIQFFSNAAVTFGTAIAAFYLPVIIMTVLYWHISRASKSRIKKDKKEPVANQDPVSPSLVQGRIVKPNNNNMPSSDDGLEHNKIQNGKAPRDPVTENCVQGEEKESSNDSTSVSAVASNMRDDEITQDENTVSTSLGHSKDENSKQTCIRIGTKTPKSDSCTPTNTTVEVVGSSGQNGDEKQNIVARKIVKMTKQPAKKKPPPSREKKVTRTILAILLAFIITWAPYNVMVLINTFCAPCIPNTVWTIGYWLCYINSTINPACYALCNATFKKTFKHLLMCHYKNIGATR

[15] = target: Acetylcholinesterase (Homo sapiens) (UniProt P22303); experiment: Inhibition of Cholinesterase, Acetyl, ACES at 10.0 µM in the Eurofins Panlabs Safety Screen; settings: Compound concentration 10.0 uM
[16] = target: Histamine H1 receptor (Homo sapiens) (UniProt P35367); settings: Compound concentration 10.0 uM
[17] = target: D(4) dopamine receptor (Homo sapiens) (UniProt P21917); settings: Compound concentration 10.0 uM
[18] = target: B1 bradykinin receptor (Homo sapiens) (UniProt P46663); experiment: Inhibition of Bradykinin B1 at 10.0 µM in the Eurofins Panlabs Safety Screen; settings: Compound concentration 10.0 uM
[19] = target: T2, Alpha-2B adrenergic receptor (Homo sapiens); settings: Compound concentration 10.0 uM
[20] = target: Kappa-type opioid receptor (Homo sapiens) (UniProt P41145); experiment: Inhibition of Opiate kappa(OP2, KOP) at 10.0 µM in the Eurofins Panlabs Safety Screen; settings: Compound concentration 10.0 uM
[21] = target: Sodium/potassium-transporting ATPase (Sus scrofa) (UniProt P05027+P05024+D2WKD8+D2WKD7+F1ST41); experiment: Inhibition of ATPase, Na+/K+, Heart, Pig at 10.0 µM in the Eurofins Panlabs Safety Screen; assay type: protein-complex assay; settings: Compound concentration 10.0 uM

Delta-type opioid receptor (Homo sapiens), sequence (P41143 whole entry): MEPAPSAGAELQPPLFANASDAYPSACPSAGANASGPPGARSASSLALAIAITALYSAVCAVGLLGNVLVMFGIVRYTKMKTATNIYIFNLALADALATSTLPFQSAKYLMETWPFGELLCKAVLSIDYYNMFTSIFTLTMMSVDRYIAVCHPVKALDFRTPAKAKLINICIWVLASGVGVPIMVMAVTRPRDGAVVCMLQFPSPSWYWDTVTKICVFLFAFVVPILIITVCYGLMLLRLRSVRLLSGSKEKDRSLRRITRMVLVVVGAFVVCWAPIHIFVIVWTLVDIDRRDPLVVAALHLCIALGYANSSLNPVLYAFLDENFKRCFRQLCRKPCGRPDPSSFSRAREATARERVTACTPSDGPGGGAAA
Beta-3 adrenergic receptor (Homo sapiens), sequence (P13945 whole entry, looked up): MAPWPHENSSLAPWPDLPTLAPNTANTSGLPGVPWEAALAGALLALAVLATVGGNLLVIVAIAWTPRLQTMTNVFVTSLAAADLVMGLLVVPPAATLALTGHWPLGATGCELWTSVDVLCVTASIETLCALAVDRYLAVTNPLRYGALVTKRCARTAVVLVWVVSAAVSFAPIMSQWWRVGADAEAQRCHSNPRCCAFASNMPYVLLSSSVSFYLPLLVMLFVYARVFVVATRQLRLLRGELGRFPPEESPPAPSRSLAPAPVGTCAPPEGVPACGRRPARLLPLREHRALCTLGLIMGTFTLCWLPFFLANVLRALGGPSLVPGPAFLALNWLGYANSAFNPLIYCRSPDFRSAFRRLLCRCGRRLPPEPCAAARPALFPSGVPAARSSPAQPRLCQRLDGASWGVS
Histamine H3 receptor, sequence (Q9Y5N1 whole entry): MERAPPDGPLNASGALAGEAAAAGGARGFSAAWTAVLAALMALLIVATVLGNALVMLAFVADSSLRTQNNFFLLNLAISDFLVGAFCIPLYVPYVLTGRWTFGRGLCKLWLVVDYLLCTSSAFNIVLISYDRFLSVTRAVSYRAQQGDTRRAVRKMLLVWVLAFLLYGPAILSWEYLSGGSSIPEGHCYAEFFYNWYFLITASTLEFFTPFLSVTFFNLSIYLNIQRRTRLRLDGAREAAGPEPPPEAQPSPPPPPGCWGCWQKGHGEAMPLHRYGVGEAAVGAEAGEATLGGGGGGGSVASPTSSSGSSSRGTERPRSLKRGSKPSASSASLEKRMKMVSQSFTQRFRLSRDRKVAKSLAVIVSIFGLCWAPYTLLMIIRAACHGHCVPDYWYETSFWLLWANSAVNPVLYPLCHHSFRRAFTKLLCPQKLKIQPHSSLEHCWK
Histamine H1 receptor (Homo sapiens), sequence (P35367 whole entry): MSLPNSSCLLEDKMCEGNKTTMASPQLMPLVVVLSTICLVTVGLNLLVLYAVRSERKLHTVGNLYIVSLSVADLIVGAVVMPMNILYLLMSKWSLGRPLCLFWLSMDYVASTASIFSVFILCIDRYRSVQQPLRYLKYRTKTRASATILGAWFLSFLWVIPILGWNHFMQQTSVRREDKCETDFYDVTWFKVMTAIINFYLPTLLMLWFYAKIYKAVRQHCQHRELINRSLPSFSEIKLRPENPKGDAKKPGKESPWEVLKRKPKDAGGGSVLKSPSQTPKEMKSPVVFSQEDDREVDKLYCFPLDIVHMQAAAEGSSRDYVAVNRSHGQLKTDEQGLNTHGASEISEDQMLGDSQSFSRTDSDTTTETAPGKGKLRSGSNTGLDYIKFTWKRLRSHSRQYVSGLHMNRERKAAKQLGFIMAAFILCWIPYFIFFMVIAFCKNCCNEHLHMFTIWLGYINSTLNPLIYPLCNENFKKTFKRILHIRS
Alpha-1D adrenergic receptor (Homo sapiens), sequence (P25100 whole entry): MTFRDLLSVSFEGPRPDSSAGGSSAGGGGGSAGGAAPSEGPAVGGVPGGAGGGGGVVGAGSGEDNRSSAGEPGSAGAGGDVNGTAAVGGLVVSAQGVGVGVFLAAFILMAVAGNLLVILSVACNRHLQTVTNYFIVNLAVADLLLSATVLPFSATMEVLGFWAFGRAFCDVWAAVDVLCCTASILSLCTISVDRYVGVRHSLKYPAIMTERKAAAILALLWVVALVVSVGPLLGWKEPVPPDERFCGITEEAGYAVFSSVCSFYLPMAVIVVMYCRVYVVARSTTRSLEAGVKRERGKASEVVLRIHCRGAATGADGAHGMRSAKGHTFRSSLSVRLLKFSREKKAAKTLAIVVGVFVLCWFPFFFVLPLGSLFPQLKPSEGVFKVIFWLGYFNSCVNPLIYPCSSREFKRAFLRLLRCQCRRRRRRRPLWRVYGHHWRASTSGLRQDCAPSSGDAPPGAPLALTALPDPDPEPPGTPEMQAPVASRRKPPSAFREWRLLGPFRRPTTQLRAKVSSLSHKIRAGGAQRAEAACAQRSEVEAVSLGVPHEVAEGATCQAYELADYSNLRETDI
D(4) dopamine receptor (Homo sapiens), sequence (P21917 whole entry): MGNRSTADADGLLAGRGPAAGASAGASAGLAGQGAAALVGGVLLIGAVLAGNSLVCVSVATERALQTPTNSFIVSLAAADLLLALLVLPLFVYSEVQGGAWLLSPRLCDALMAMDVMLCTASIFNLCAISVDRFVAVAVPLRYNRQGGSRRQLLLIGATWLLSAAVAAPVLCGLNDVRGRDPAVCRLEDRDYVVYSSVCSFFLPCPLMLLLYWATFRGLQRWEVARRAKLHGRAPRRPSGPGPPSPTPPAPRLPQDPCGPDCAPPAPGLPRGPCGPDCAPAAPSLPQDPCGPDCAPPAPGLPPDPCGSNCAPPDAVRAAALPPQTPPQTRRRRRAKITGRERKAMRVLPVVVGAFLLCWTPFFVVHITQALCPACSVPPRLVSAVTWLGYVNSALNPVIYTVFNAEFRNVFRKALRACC
Kappa-type opioid receptor (Homo sapiens), sequence (P41145 whole entry): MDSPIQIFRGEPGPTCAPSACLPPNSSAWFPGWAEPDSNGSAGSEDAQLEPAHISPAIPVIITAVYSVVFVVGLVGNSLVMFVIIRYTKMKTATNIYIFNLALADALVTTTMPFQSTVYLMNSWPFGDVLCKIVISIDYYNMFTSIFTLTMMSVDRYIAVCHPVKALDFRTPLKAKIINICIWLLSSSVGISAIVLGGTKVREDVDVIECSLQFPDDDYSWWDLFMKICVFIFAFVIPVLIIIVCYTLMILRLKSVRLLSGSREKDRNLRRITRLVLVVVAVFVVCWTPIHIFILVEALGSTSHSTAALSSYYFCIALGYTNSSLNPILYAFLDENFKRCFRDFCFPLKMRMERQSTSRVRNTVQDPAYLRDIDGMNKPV
Vasopressin V1a receptor (Homo sapiens), sequence (P37288 whole entry, looked up): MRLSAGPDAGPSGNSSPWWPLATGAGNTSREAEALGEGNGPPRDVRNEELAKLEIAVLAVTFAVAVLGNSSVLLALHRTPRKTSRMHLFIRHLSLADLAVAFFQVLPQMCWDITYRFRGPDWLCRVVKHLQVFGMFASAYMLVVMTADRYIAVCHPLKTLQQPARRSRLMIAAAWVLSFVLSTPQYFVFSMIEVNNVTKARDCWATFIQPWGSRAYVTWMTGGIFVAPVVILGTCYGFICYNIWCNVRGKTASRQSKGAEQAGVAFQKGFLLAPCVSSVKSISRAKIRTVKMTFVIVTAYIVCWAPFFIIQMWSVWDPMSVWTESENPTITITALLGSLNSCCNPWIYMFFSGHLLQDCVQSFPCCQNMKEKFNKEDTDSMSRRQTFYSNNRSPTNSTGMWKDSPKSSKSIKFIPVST
B1 bradykinin receptor (Homo sapiens), sequence (P46663 whole entry): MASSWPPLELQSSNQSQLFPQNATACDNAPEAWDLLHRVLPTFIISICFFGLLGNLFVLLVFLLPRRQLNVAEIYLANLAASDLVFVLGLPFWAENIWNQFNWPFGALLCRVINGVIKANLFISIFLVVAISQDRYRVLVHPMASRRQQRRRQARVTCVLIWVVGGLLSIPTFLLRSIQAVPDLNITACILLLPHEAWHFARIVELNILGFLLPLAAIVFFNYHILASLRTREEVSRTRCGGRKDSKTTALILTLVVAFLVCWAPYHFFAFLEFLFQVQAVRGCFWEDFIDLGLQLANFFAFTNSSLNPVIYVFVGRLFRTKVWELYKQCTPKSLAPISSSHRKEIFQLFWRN
B2 bradykinin receptor (Homo sapiens), sequence (P30411 whole entry): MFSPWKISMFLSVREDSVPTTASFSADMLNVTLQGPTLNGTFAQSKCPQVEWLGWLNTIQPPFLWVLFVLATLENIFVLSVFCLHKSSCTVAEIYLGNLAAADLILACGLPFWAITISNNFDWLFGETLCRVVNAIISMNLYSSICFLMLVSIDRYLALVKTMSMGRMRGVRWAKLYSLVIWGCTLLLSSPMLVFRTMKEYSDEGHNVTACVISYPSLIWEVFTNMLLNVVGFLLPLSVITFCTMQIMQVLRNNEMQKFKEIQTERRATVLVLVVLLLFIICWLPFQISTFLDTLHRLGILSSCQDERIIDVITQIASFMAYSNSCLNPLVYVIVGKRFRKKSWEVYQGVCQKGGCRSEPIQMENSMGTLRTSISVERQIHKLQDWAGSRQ
Adenosine receptor A3 (Homo sapiens), sequence (P0DMS8 whole entry): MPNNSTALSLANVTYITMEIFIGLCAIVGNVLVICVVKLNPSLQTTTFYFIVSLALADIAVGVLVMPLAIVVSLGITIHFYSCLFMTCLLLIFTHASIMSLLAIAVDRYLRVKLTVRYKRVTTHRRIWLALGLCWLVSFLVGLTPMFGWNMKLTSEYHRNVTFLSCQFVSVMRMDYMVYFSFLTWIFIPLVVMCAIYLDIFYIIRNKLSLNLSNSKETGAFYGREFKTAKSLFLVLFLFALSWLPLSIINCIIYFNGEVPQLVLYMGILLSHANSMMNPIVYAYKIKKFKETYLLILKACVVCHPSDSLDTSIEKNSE

| Structure (SMILES) | inhibition [1] | inhibition [2] | inhibition [3] | Ki (Histamine H3 receptor; read-out: Ki) | Ki (Histamine H3 receptor; read-out: pKi (converted)) | inhibition [4] | inhibition [5] | inhibition [6] | inhibition [7] | inhibition [8] | inhibition (D(3) dopamine receptor) | inhibition [9] | inhibition [10] | inhibition [11] | DC50 [12] | inhibition [13] | inhibition [14] | inhibition [15] | inhibition [16] | inhibition [17] | further results |
| --- | --- | --- | --- | --- | --- | --- | --- | --- | --- | --- | --- | --- | --- | --- | --- | --- | --- | --- | --- | --- | --- |
| O=C1NCCCC1N1Cc2cc(C3CCN(C(=O)CCCCCN4CCC(c5ccc(Oc6nn7cnnc7c7c6CCCC7)cc5)CC4)CC3)ccc2C1=O (stereo not drawn) | 44% | 19.5% | -3% | 73.2 nM | 72.4 nM | 3.95% | 15% | 21% | 13% | 8% | 76% | 7% | 20% | 7.19% | > 100 nM (not active) | 8.76% | 47% | 38% | 14.2% | 19.1% | inhibition [18]: 7%; inhibition [19]: 8.66%; inhibition [20]: 35%; inhibition [21]: 1% |
| O=C1CCC(N2Cc3cc(C4CCN(C(=O)CCCCCN5CCC(c6ccc(Oc7nn8cnnc8c8c7CCCC8)cc6)CC5)CC4)ccc3C2=O)C(=O)N1 (stereo not drawn) | 40% | 17.5% | -8% | 72.8 nM | 70.8 nM | 5.83% | 28% | 16% | 10% | 19% | 90% | 0% | 13% | 27.8% | 0.2 nM (active) | 19.8% | 53% | 45% | 10.3% | 14.3% | inhibition [18]: 1%; inhibition [19]: 8.76%; inhibition [20]: 18%; inhibition [21]: -7% |
